Measurements published in patent publication US10610517B2, “Compositions and methods for treating neoplastic diseases” (Celgene International II Sàrl, priority 2004, dated 2020).

Columns and labels:
[1] = test system: 20S proteasome in white blood cell (WBC) lysates; assay: Ex vivo 20S proteasome activity in whole blood cells in mice
Experimental: To directly determine whether the compound of formula (II) (X=Cl) inhibits proteasome activity in vivo, the compound of formula (II) (X=Cl) was dissolved in 100% DMSO and serially diluted with 5% Solutol (Solutol® HS15; polyethylene glycol 660 12-hydroxystearate, BASF, Shreveport, La.) yielding a final concentration of 2% DMSO. The vehicle control consisted of 2% DMSO and 98% (5% Solutol® HS15). Male Swiss-Webster mice (five per group, 20-25 grams in weight) were treated at Bolder BioPATH, Inc. (Boulder, Colo.) with various concentrations of the compound either intravenously or orally at a volume of 10 mL/kg. One group of animals was untreated to establish a baseline of proteasome activity. Ninety minutes after administration of the compound, the animals were anesthetized and blood withdrawn by cardiac puncture. Packed whole blood cells were collected by centrifugation, washed with PBS, and frozen on dry ice for determination of ex vivo proteasome activity. Chymotrypsin-like activity of the 20S proteasome in white blood cell (WBC) lysates was determined using the peptide substrate suc-LLVY-AMC. Relative Fluoresence Units (RFU) were normalized using the protein concentrations of the cell lysates. The 20S proteasome activity of the individual mice is shown in FIG. 2 with the horizontal bar representing the average activity. […]

[2] = molecular target: proteasome β-5, β-2, β-1 subunits in MM.1S MM cells (Homo sapiens, UniProt P28072+P28074+Q99436); assay: Competition experiment with AdaY(125I)Ahx3L3VS in MM.1S cells; assay type: cell-based; details: 7 nM
Experimental: Determination of whether the compound of formula II (X=Cl) affects the proteasome activity in multiple myeloma cells in vitro was made using a competition experiment with AdaY^125Iahx3L3VS. In this assay, sites that are not targeted by the compound of formula II (X=Cl) are labeled by AdaY(^125I)Ahx3L3VS and visualized by autoradiography, while sites that are targeted by the compound of formula II (X=Cl) can not be seen on the autoradiogram. […] 60 μg of protein extracts was incubated for 2 h with the iodinated proteasome inhibitor AdaY^125Iahx3L3VS at 37° C. Proteins were then denatured by boiling in reducing sample buffer and separated on a 12.5% SDS-PAGE gel, followed by autoradiography.

CC12OC(=O)C1(C(O)C1C=CCCC1)NC(=O)C2CCCl (stereo not shown) [compound of formula (II) (X=Cl)]
oral activity ([1]; oral administration, mice): orally active
Chymotrypsin-like activity of the 20S proteasome in WBC lysates ([1]; single i.v. or oral administration, 90 minutes after administration, FIG. 2): inhibits chymotrypsin-like activity of 20S proteasomes in white blood cells in a dose-dependent manner
labeling of β-5 subunit by AdaY(125I)Ahx3L3VS ([2]; 30 mins to 6 h, FIG. 3): markedly less labeled
labeling of β-2 and β-1 subunits by AdaY(125I)Ahx3L3VS ([2]; 6 h, data not shown): decreased the labeling of the β-2 subunits (tryptic-activity) and the β-1 subunits (caspase-like activity)
